Test system: HB-EGF and ADAM 12S co-expressing cells
Assay: Inhibition of adipogenesis by KB-R7785 (Oil Red O staining, morphology)
Type: cell-based, mouse
Description: Cells were grown in the 60 mm culture dishes (Corning). After reaching a cell confluence of 50-70%, the cells were washed with 1.0 ml of PBS for three times, fixed with 1.0 ml of 10% formalin for 60 minutes at room temperature. Oil Red O stock stain solution was prepared by mixing 0.3 g oil red O in 100 ml of isopropanol overnight at room temperature and filtered by using Whatman #2 filter papers. The formalin was removed and the cells were washed with deionized water. The culture dishes were aspirated and added with 1.0 ml of 60% isopropanol working solution to incubate 5 minutes at room temperature. Oil Red O working solution was prepared by diluting 30 ml of the stock stain with 20 ml of distilled water, filtered with Whatman #1 filter papers into a Coplin jar, and covered with a lid immediately. The 60% working isopropanol was removed and the culture dishes were filled with 1.0 ml working solution of Oil Red O, incubated for 5 minutes at room temperature. The cells were rinsed with deionized water until fluid becomes clear, and counterstained with 1 ml of hematoxylin for 1 minute at room temperature. The hematoxylin was then removed from the wells, and the cells were rinsed with deionized water and imaged under a microscope (Olympus). […]

## CNC(=O)[C@@H](NC(=O)[C@H](CC(C)C)[C@H](C)C(=O)NO)c1ccccc1 [KB-R7785, [4-(N-hydroxyamino)-2R-isobutyl-3S-methylsuccinyl]-L-phenylglycine-N-methylamide]
KB-R7785 10 μM, over 4 weeks, mouse fibroblasts stably transfected with ADAM 12S and HB-EGF
  Reversal of brown adipocytes / adipocyte morphology: returned the brown adipocytes to mouse fibroblasts
KB-R7785 20 μM in culture media, 3 weeks incubation, cells positive for Oil Red O before
  Oil Red O staining after incubation with inhibitor: lack Oil Red O staining

Reference: patent US8835112B2, “Cell transdifferentiation into brown adipocytes” (Miami University, priority 2010, dated 2014)
